Reference: ChEMBL document CHEMBL1201862, “PubChem BioAssay data set” (2004)
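How tested: cells in 96-well plates exposed to compound for 48 hours at five concentrations. GI50 = concentration required for 50% inhibition of growth.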 Calls of active or inactive are those of the source. No stated cut-off is given here; in the data, active = GI50 up to about 1.1 µM and inactive = higher.

Experiments:
Assay in all cases: NCI anticancer screen, dose series, 48 h
HOP-92 = system: HOP-92
SK-MEL-2 = system: SK-MEL-2
NCI-H226 = system: NCI-H226
SF-295 = system: SF-295
SF-539 = system: SF-539
HCT-116 = system: HCT-116
TK-10 = system: TK-10
OVCAR-3 = system: OVCAR-3
SK-MEL-5 = system: SK-MEL-5
SK-MEL-28 = system: SK-MEL-28
UACC-62 = system: UACC-62
A498 = system: A498
SNB-75 = system: SNB-75
MOLT-4 = system: MOLT-4
M14 = system: M14
U-251 = system: U-251
OVCAR-4 = system: OVCAR-4
HOP-62 = system: HOP-62
RPMI-8226 = system: RPMI-8226

Measured: GI50

CC1C2(C)OCC(C#N)(C(=N)O2)C1(C#N)C#N (centres undefined)
inactive: HOP-92 21.9 µM | SK-MEL-2 14.4 µM | NCI-H226 67 µM | SF-295 78 µM | SF-539 23.1 µM | HCT-116 18.3 µM | TK-10 37.1 µM | OVCAR-3 15.1 µM | SK-MEL-5 11.3 µM | SK-MEL-28 24.8 µM | UACC-62 24.9 µM | A498 88.7 µM | SNB-75 96.8 µM | MOLT-4 27.3 µM | M14 16.1 µM | U-251 16.3 µM

CCCc1cc(COC)c(C#N)c(O)n1
inactive: NCI-H226 17.5 µM | OVCAR-4 > 100 µM | SF-295 > 100 µM | SF-539 65 µM | HCT-116 > 100 µM | TK-10 > 100 µM | HOP-62 > 100 µM | OVCAR-3 > 100 µM | RPMI-8226 > 100 µM | SK-MEL-5 > 100 µM | SK-MEL-28 > 100 µM | UACC-62 > 100 µM | A498 > 100 µM | MOLT-4 > 100 µM | M14 > 100 µM | U-251 > 100 µM

COc1cc(OC)c2ssc3c(OC)cc(OC)c4ssc1c2-c43
inactive: SK-MEL-2 > 100 µM | NCI-H226 > 100 µM | OVCAR-4 > 100 µM | SF-295 > 100 µM | SF-539 > 100 µM | HCT-116 > 100 µM | TK-10 > 100 µM | HOP-62 > 100 µM | OVCAR-3 > 100 µM | SK-MEL-5 > 100 µM | SK-MEL-28 > 100 µM | UACC-62 > 100 µM | A498 > 100 µM | SNB-75 31.3 µM | MOLT-4 > 100 µM | M14 > 100 µM | U-251 > 100 µM

CCOP(=O)(Nc1ccc(-c2ccccc2)cc1)OCC
inactive: HOP-92 24.8 µM | SK-MEL-2 > 100 µM | OVCAR-4 96.4 µM | SF-295 > 100 µM | HCT-116 > 100 µM | TK-10 > 100 µM | HOP-62 > 100 µM | OVCAR-3 49.9 µM | RPMI-8226 43.3 µM | SK-MEL-5 90.2 µM | SK-MEL-28 > 100 µM | UACC-62 > 100 µM | A498 > 100 µM | SNB-75 74.3 µM | MOLT-4 36.4 µM | M14 > 100 µM | U-251 > 100 µM

O=C(Nc1ccc(Cl)cc1Cl)C1C(=O)C(=O)N(c2ccc(Cl)cc2Cl)C1=O (centres undefined)
inactive: NCI-H226 34.1 µM | OVCAR-4 > 100 µM | SF-539 > 100 µM | HCT-116 99.1 µM | TK-10 > 100 µM | HOP-62 > 100 µM | OVCAR-3 38.5 µM | SK-MEL-5 > 100 µM | SK-MEL-28 > 100 µM | UACC-62 > 100 µM | A498 > 100 µM | SNB-75 > 100 µM | M14 > 100 µM | U-251 > 100 µM

NC(=O)N=C(NCc1ccccc1)NCc1ccccc1
inactive: HOP-92 20 µM | SK-MEL-2 > 100 µM | OVCAR-4 > 100 µM | SF-295 > 100 µM | SF-539 > 100 µM | HCT-116 > 100 µM | TK-10 > 100 µM | HOP-62 > 100 µM | OVCAR-3 > 100 µM | SK-MEL-5 > 100 µM | SK-MEL-28 > 100 µM | UACC-62 > 100 µM | M14 > 100 µM | U-251 > 100 µM

Clc1cccc(C2N3CCCCC3[C@@H]3c4[nH]c5ccccc5c4CCN23)c1 (some centres undefined)
inactive: HOP-92 62.5 µM | SK-MEL-2 19.8 µM | OVCAR-4 33.5 µM | SF-295 51.1 µM | SF-539 21.1 µM | HCT-116 17.1 µM | TK-10 40.8 µM | HOP-62 46.9 µM | OVCAR-3 34.8 µM | RPMI-8226 29 µM | SK-MEL-5 18 µM | SK-MEL-28 22.8 µM | UACC-62 15.6 µM | A498 31.2 µM | SNB-75 32.8 µM | MOLT-4 23.1 µM | M14 27.9 µM | U-251 29.2 µM

Cc1cc(C)nc(NS(=O)(=O)c2ccc(NC(=O)c3cccc4c(Nc5ccc(S(=O)(=O)Nc6nc(C)cc(C)n6)cc5)c5ccccc5nc34)cc2)n1
inactive: HOP-92 18.9 µM | SK-MEL-2 34 µM | OVCAR-4 25.7 µM | SF-295 21.4 µM | SF-539 15.4 µM | HCT-116 11.7 µM | TK-10 27.2 µM | HOP-62 21 µM | OVCAR-3 19.9 µM | RPMI-8226 20.2 µM | SK-MEL-5 16.6 µM | SK-MEL-28 14.6 µM | UACC-62 19.1 µM | A498 18.7 µM | SNB-75 3.44 µM | MOLT-4 22.4 µM | M14 25.1 µM | U-251 16.4 µM

N#C/C(=C1\SC(/N=N/c2ccccc2)C(=O)N1c1ccccc1)c1nc2ccccc2[nH]1 (centres undefined)
inactive: HOP-92 23.5 µM | SK-MEL-2 68.5 µM | NCI-H226 71.1 µM | OVCAR-4 66.7 µM | SF-295 61.2 µM | SF-539 29.7 µM | HCT-116 > 100 µM | TK-10 48.9 µM | HOP-62 23.4 µM | OVCAR-3 68.1 µM | SK-MEL-5 57 µM | SK-MEL-28 > 100 µM | UACC-62 > 100 µM | A498 > 100 µM | SNB-75 36.7 µM | MOLT-4 26.1 µM | M14 78.2 µM | U-251 54.2 µM

COC(=O)C(=O)CC(=O)c1cccc(OC)c1
inactive: NCI-H226 > 100 µM | OVCAR-4 > 100 µM | SF-295 > 100 µM | SF-539 > 100 µM | HCT-116 > 100 µM | TK-10 78.3 µM | HOP-62 > 100 µM | OVCAR-3 > 100 µM | RPMI-8226 > 100 µM | SK-MEL-5 > 100 µM | SK-MEL-28 > 100 µM | UACC-62 > 100 µM | A498 > 100 µM | SNB-75 > 100 µM | MOLT-4 > 100 µM | M14 > 100 µM | U-251 > 100 µM

CS/C(=N\C#N)NC1CC(n2cc(C)c(=O)[nH]c2=O)OC1CO (centres undefined)
inactive: HOP-92 > 100 µM | SK-MEL-2 > 100 µM | NCI-H226 > 100 µM | OVCAR-4 > 100 µM | SF-295 > 100 µM | SF-539 > 100 µM | HCT-116 > 100 µM | TK-10 > 100 µM | HOP-62 > 100 µM | OVCAR-3 > 100 µM | SK-MEL-5 > 100 µM | SK-MEL-28 > 100 µM | UACC-62 > 100 µM | A498 > 100 µM | SNB-75 > 100 µM | MOLT-4 > 100 µM | M14 > 100 µM | U-251 > 100 µM

CC1OC(=O)N2CCC=CC12 (centres undefined)
inactive: SK-MEL-2 > 100 µM | NCI-H226 > 100 µM | OVCAR-4 > 100 µM | SF-295 > 100 µM | SF-539 > 100 µM | HCT-116 > 100 µM | TK-10 > 100 µM | OVCAR-3 > 100 µM | RPMI-8226 > 100 µM | SK-MEL-5 > 100 µM | SK-MEL-28 > 100 µM | UACC-62 > 100 µM | A498 > 100 µM | SNB-75 > 100 µM | MOLT-4 > 100 µM | U-251 > 100 µM
